The term pKi denotes the negative decadic logarithm of the Ki, by convention in mol/L. Read a low pKi as a high Ki.

pKi: −log10 of the molar value.

This experiment in a line: Inhibition of Clostridium histolyticum collagenase using a linear regression program.
As to `CC(C(=O)O)N(Cc1ccc([N+](=O)[O-])cc1)S(=O)(=O)C(F)(F)C(F)(F)C(F)(F)C(F)(F)F` (configuration not stated) [2-[(4-Nitro-benzyl)-(nonafluorobutane-1-sulfonyl)-amino]-propionic acid], the negative-log Ki (pKi) was 5.64. With `CC(C(=O)O)N(Cc1ccc([N+](=O)[O-])cc1)S(=O)(=O)c1cccc2cccnc12` (configuration not stated) [2-[(4-Nitro-benzyl)-(quinoline-8-sulfonyl)-amino]-propionic acid] the figure was 5.92; with `CC(C(=O)O)N(Cc1ccc([N+](=O)[O-])cc1)S(=O)(=O)c1cccs1` (configuration not stated) [2-[(4-Nitro-benzyl)-(thiophene-2-sulfonyl)-amino]-propionic acid], 5.68; with `Cc1ccc(S(=O)(=O)N(Cc2ccc([N+](=O)[O-])cc2)C(C)C(=O)O)cc1` (configuration not stated) [2-[(4-Nitro-benzyl)-(toluene-4-sulfonyl)-amino]-propionic acid], 4.89. With `CC(C(=O)O)N(Cc1ccc([N+](=O)[O-])cc1)S(=O)(=O)c1c(F)c(F)c(F)c(F)c1F` (configuration not stated) [2-[(4-Nitro-benzyl)-pentafluorobenzenesulfonyl-amino]-propionic acid] the figure was 6.40. `CC(C(=O)O)N(Cc1ccc([N+](=O)[O-])cc1)S(=O)(=O)Cc1ccccc1` (configuration not stated) [2-[(4-Nitro-benzyl)-phenylmethanesulfonyl-amino]-propionic acid]: the negative logarithm of the Ki (pKi) is 4.82.

Consider `CC(C(=O)O)N(Cc1ccc([N+](=O)[O-])cc1)S(=O)(=O)C(Cl)(Cl)Cl` (configuration not stated) [2-[(4-Nitro-benzyl)-trichloromethanesulfonyl-amino]-propionic acid], for which the pKi is 5.29.

`CC(C(=O)O)N(Cc1ccc([N+](=O)[O-])cc1)S(=O)(=O)C(F)(F)F` (configuration not stated) [2-[(4-Nitro-benzyl)-trifluoromethanesulfonyl-amino]-propionic acid] gave a pKi of 5.33. The figure for `CC(C(=O)O)N(Cc1ccc([N+](=O)[O-])cc1)S(=O)(=O)c1ccc(NC(=O)OC(C)(C)C)cc1` (configuration not stated) [2-[(4-tert-Butoxycarbonylamino-benzenesulfonyl)-(4-nitro-benzyl)-amino]-propionic acid] is 5.62; for `CC(C(=O)NO)N(Cc1ccc([N+](=O)[O-])cc1)S(=O)(=O)c1cccc2c(N(C)C)cccc12` (configuration not stated) [2-[(5-Dimethylamino-naphthalene-1-sulfonyl)-(4-nitro-benzyl)-amino]-N-hydroxy-propionamide] it is 5.15. With `CC(C(=O)O)N(Cc1ccc([N+](=O)[O-])cc1)S(=O)(=O)c1cccc2c(N(C)C)cccc12` (configuration not stated) [2-[(5-Dimethylamino-naphthalene-1-sulfonyl)-(4-nitro-benzyl)-amino]-propionic acid] the figure was 5.96. The figure for `CC(C(=O)NO)N(Cc1ccc([N+](=O)[O-])cc1)S(=O)(=O)C(F)(F)C(F)(F)C(F)(F)C(F)(F)C(F)(F)C(F)(F)C(F)(F)C(F)(F)F` (configuration not stated) [2-[(Heptadecafluorooctane-1-sulfonyl)-(4-nitro-benzyl)-amino]-N-hydroxy-propionamide] is 5.15. In turn, `CC(C(=O)O)N(Cc1ccc([N+](=O)[O-])cc1)S(=O)(=O)C(F)(F)C(F)(F)C(F)(F)C(F)(F)C(F)(F)C(F)(F)C(F)(F)C(F)(F)F` (configuration not stated) [2-[(Heptadecafluorooctane-1-sulfonyl)-(4-nitro-benzyl)-amino]-propionic acid] gave a pKi of 5.74. With `CC(C(=O)O)N(Cc1ccc([N+](=O)[O-])cc1)S(=O)(=O)c1cccc2ccccc12` (configuration not stated) [2-[(Naphthalene-1-sulfonyl)-(4-nitro-benzyl)-amino]-propionic acid] the figure was 5.92; with `CC(C(=O)O)N(Cc1ccc([N+](=O)[O-])cc1)S(=O)(=O)c1ccc2ccccc2c1` (configuration not stated) [2-[(Naphthalene-2-sulfonyl)-(4-nitro-benzyl)-amino]-propionic acid], 5.89; with `Cc1ccccc1S(=O)(=O)NC(=O)N(Cc1ccc([N+](=O)[O-])cc1)C(C)C(=O)O` (configuration not stated) [2-[({[(2-methylphenyl)sulfonyl]amino}carbonyl)(4-nitrobenzyl)amino]propanoic acid], 5.51. With `CC(C(=O)NO)N(Cc1ccc([N+](=O)[O-])cc1)C(=O)NS(=O)(=O)c1ccc(Cl)cc1` (configuration not stated) [2-[({[(4-chlorophenyl)sulfonyl]amino}carbonyl)(4-nitrobenzyl)amino]-N-hydroxypropanamide] the figure was 5.15. With `CC(C(=O)O)N(Cc1ccc([N+](=O)[O-])cc1)C(=O)NS(=O)(=O)c1ccc(Cl)cc1` (configuration not stated) [2-[({[(4-chlorophenyl)sulfonyl]amino}carbonyl)(4-nitrobenzyl)amino]propanoic acid] the figure was 5.62; with `CC(C(=O)NO)N(Cc1ccc([N+](=O)[O-])cc1)C(=O)NS(=O)(=O)c1ccc(F)cc1` (configuration not stated) [2-[({[(4-fluorophenyl)sulfonyl]amino}carbonyl)(4-nitrobenzyl)amino]-N-hydroxypropanamide], 5.05; with `CC(C(=O)O)N(Cc1ccc([N+](=O)[O-])cc1)C(=O)NS(=O)(=O)c1ccc(F)cc1` (configuration not stated) [2-[({[(4-fluorophenyl)sulfonyl]amino}carbonyl)(4-nitrobenzyl)amino]propanoic acid], 5.48. In turn, `Cc1ccc(S(=O)(=O)NC(=O)N(Cc2ccc([N+](=O)[O-])cc2)C(C)C(=O)O)cc1` (configuration not stated) [2-[({[(4-methylphenyl)sulfonyl]amino}carbonyl)(4-nitrobenzyl)amino]propanoic acid] showed a pKi of 5.60. The figure for `CC(C(=O)NO)N(Cc1ccc([N+](=O)[O-])cc1)S(=O)(=O)c1ccccc1` (configuration not stated) [2-[Benzenesulfonyl-(4-nitro-benzyl)-amino]-N-hydroxy-propionamide] is 4.27. On to `CC(C(=O)O)N(Cc1ccc([N+](=O)[O-])cc1)S(=O)(=O)c1ccccc1` (configuration not stated) [2-[Benzenesulfonyl-(4-nitro-benzyl)-amino]-propionic acid], for which the pKi is 4.68. Against the preceding compound, the pKi is 0.41 log units higher.

Take `CC(C(=O)O)N(Cc1ccc([N+](=O)[O-])cc1)S(C)(=O)=O` (configuration not stated) [2-[Methanesulfonyl-(4-nitro-benzyl)-amino]-propionic acid]: the pKi is 4.74. For the compound `CC(C(=O)NO)N(Cc1ccc([N+](=O)[O-])cc1)S(=O)(=O)N(C)C` (configuration not stated) [2-[[(dimethylamino)sulfonyl](4-nitrobenzyl)amino]-N-hydroxypropanamide], the pKi was 4.16.

`CC(C(=O)O)N(Cc1ccc([N+](=O)[O-])cc1)S(=O)(=O)N(C)C` (configuration not stated) [2-[[(dimethylamino)sulfonyl](4-nitrobenzyl)amino]propanoic acid] had a negative-log Ki (pKi) of 4.44.

As to `CC(C(=O)O)N(Cc1ccc([N+](=O)[O-])cc1)S(=O)(=O)c1cccc(C(=O)O)c1` (configuration not stated) [3-[(1-Carboxy-ethyl)-(4-nitro-benzyl)-sulfamoyl]-benzoic acid], the pKi is 5.70. For `CC(C(=O)NO)N(Cc1ccc([N+](=O)[O-])cc1)S(=O)(=O)c1cccc(C(=O)O)c1` (configuration not stated) [3-[(1-Hydroxycarbamoyl-ethyl)-(4-nitro-benzyl)-sulfamoyl]-benzoic acid], the pKi is 5.05. The figure for `CC(C(=O)O)N(Cc1ccc([N+](=O)[O-])cc1)S(=O)(=O)c1ccc(C(=O)O)cc1` (configuration not stated) [4-[(1-Carboxy-ethyl)-(4-nitro-benzyl)-sulfamoyl]-benzoic acid] is 5.85. For `CC(C(=O)NO)N(Cc1ccc([N+](=O)[O-])cc1)S(=O)(=O)c1ccc(C(=O)O)cc1` (configuration not stated) [4-[(1-Hydroxycarbamoyl-ethyl)-(4-nitro-benzyl)-sulfamoyl]-benzoic acid], the negative-log Ki (pKi) was 5.22. With `CC(C(=O)NO)N(Cc1ccc([N+](=O)[O-])cc1)C(=O)Nc1cccc2ccccc12` (configuration not stated) [N-Hydroxy-2-[3-naphthalen-1-yl-1-(4-nitro-benzyl)-ureido]-propionamide] the figure was 5.00; with `CC(C(=O)NO)N(Cc1ccc([N+](=O)[O-])cc1)S(=O)(=O)c1ccccc1[N+](=O)[O-]` (configuration not stated) [N-Hydroxy-2-[(2-nitro-benzenesulfonyl)-(4-nitro-benzyl)-amino]-propionamide], 4.89; with `CC(C(=O)NO)N(Cc1ccc([N+](=O)[O-])cc1)S(=O)(=O)c1cccc([N+](=O)[O-])c1` (configuration not stated) [N-Hydroxy-2-[(3-nitro-benzenesulfonyl)-(4-nitro-benzyl)-amino]-propionamide], 4.92. With `CC(C(=O)NO)N(Cc1ccc([N+](=O)[O-])cc1)S(=O)(=O)c1ccc(I)cc1` (configuration not stated) [N-Hydroxy-2-[(4-iodo-benzenesulfonyl)-(4-nitro-benzyl)-amino]-propionamide] the figure was 4.43; with `COc1ccc(S(=O)(=O)N(Cc2ccc([N+](=O)[O-])cc2)C(C)C(=O)NO)cc1` (configuration not stated) [N-Hydroxy-2-[(4-methoxy-benzenesulfonyl)-(4-nitro-benzyl)-amino]-propionamide], 4.68; with `CC(C(=O)NO)N(Cc1ccc([N+](=O)[O-])cc1)S(=O)(=O)c1ccc([N+](=O)[O-])cc1` (configuration not stated) [N-Hydroxy-2-[(4-nitro-benzenesulfonyl)-(4-nitro-benzyl)-amino]-propionamide], 5.00. With `Cc1cc(C)c(S(=O)(=O)N(Cc2ccc([N+](=O)[O-])cc2)C(C)C(=O)NO)c(C)c1` (configuration not stated) [N-Hydroxy-2-[(4-nitro-benzyl)-(2,4,6-trimethyl-benzenesulfonyl)-amino]-propionamide] the figure was 4.77; with `CC(C(=O)NO)N(Cc1ccc([N+](=O)[O-])cc1)S(=O)(=O)c1cccc(C(F)(F)F)c1` (configuration not stated) [N-Hydroxy-2-[(4-nitro-benzyl)-(3-trifluoromethyl-benzenesulfonyl)-amino]-propionamide], 5.22; with `CC(C(=O)NO)N(Cc1ccc([N+](=O)[O-])cc1)Sc1ccc([N+](=O)[O-])cc1` (configuration not stated) [N-Hydroxy-2-[(4-nitro-benzyl)-(4-nitro-phenylsulfanyl)-amino]-propionamide], 4.96.

As to `CC(C(=O)NO)N(Cc1ccc([N+](=O)[O-])cc1)S(=O)(=O)c1cccc2cccnc12` (configuration not stated) [N-Hydroxy-2-[(4-nitro-benzyl)-(quinoline-8-sulfonyl)-amino]-propionamide], the pKi is 5.10. This pKi and that of the compound before are within 0.2 log units of each other. The figure for `CC(C(=O)NO)N(Cc1ccc([N+](=O)[O-])cc1)S(=O)(=O)c1cccs1` (configuration not stated) [N-Hydroxy-2-[(4-nitro-benzyl)-(thiophene-2-sulfonyl)-amino]-propionamide] is 4.96; for `Cc1ccc(S(=O)(=O)N(Cc2ccc([N+](=O)[O-])cc2)C(C)C(=O)NO)cc1` (configuration not stated) [N-Hydroxy-2-[(4-nitro-benzyl)-(toluene-4-sulfonyl)-amino]-propionamide] it is 4.44.

The record behind these values is BindingDB's records for doi:10.1016/s0960-894x(00)00026-3 (Universit&#224, 2000).
